Laboratory results from patent US20120316184A1, “NOVEL MICROBICIDES” (SYNGENTA CROP PROTECTION LLC, priority 2010, published 2012).

Tests used:
[1] = test system: Mycosphaerella graminicola (Septoria tritici); experiment: Fungicidal activity against Mycosphaerella graminicola (Septoria tritici) / liquid culture (Septoria blotch); type: cell-based; conditions: Zymoseptoria tritici, liquid culture (PDB), inhibition of growth determined photometrically 4-5 days after application, read-out: disease control
Method: Fungicidal Activity Against Mycosphaerella graminicola (Septoria tritici)/Liquid Culture (Septoria Blotch) Conidia of the fungus from cryogenic storage were directly mixed into nutrient broth (PDB potato dextrose broth). After placing a (DMSO) solution of test compound into a microtiter plate (96-well format), the nutrient broth containing the fungal spores was added. The test plates were incubated at 24° C. and the inhibition of growth was determined photometrically 4-5 days after application.

[2] = test system: Glomerella lagenarium (Colletotrichum lagenarium); experiment: Fungicidal activity against Glomerella lagenarium (Colletotrichum lagenarium) / liquid culture (anthracnose); type: cell-based; conditions: Colletotrichum orbiculare, liquid culture (PDB), inhibition of growth measured photometrically 3-4 days after application, read-out: disease control
Method: Fungicidal Activity Against Glomerella lagenarium (Colletotrichum lagenarium)/Liquid Culture (Anthracnose) Conidia of the fungus from cryogenic storage were directly mixed into nutrient broth (PDB potato dextrose broth). After placing a (DMSO) solution of test compound into a microtiter plate (96-well format), the nutrient broth containing the fungal spores was added. The test plates were incubated at 24° C. and the inhibition of growth was measured photometrically 3-4 days after application.

[3] = test system: Phaeosphaeria nodorum (Septoria nodorum); experiment: Fungicidal activity against Phaeosphaeria nodorum (Septoria nodorum) / wheat / leaf disc preventative (glume blotch); type: in vivo; conditions: Parastagonospora nodorum, foliar, wheat leaf segments cv. Kanzler, inoculated 2 days after application, assessed 5-7 days after application, vs untreated, read-out: disease control
Method: Fungicidal Activity Against Phaeosphaeria nodorum (Septoria nodorum)/Wheat/Leaf Disc Preventative (Glume Blotch) Wheat leaf segments cv. Kanzler were placed on agar in a multiwell plate (24-well format) and sprayed with the formulated test compound diluted in water. The leaf disks were inoculated with a spore suspension of the fungus 2 days after application. The inoculated test leaf disks were incubated at 20° C. and 75% rh under a light regime of 12 h light/12 h darkness in a climate cabinet and the activity of a compound was assessed as percent disease control compared to untreated when an appropriate level of disease damage appears in untreated check leaf disks (5-7 days after application).

[4] = test system: Puccinia recondita f. sp. tritici; experiment: Fungicidal activity against Puccinia recondita f. sp. tritici / wheat / leaf disc preventative (brown rust); type: in vivo; conditions: foliar, wheat leaf segments cv. Kanzler, inoculated 1 day after application, assessed 7-9 days after application, vs untreated, read-out: disease control
Method: Fungicidal Activity Against Puccinia recondita f. sp. tritici/Wheat/Leaf Disc Preventative (Brown Rust) Wheat leaf segments cv. Kanzler were placed on agar in multiwell plates (24-well format) and sprayed with the formulated test compound diluted in water. The leaf disks were inoculated with a spore suspension of the fungus 1 day after application. The inoculated leaf segments were incubated at 19° C. and 75% rh under a light regime of 12 h light/12 h darkness in a climate cabinet and the activity of a compound was assessed as percent disease control compared to untreated when an appropriate level of disease damage appears in untreated check leaf segments (7-9 days after application).

[5] = test system: Mycosphaerella arachidis (Cercospora arachidicola); experiment: Fungicidal activity against Mycosphaerella arachidis (Cercospora arachidicola) / liquid culture (early leaf spot); type: cell-based; conditions: liquid culture (PDB), inhibition of growth determined photometrically 4-5 days after application, read-out: disease control
Method: Fungicidal Activity Against Mycosphaerella arachidis (Cercospora arachidicola)/Liquid Culture (Early Leaf Spot) Conidia of the fungus from cryogenic storage were directly mixed into nutrient broth (PDB potato dextrose broth). After placing a (DMSO) solution of test compound into a microtiter plate (96-well format), the nutrient broth containing the fungal spores was added. The test plates were incubated at 24° C. and the inhibition of growth was determined photometrically 4-5 days after application.

[6] = test system: Gaeumannomyces graminis; experiment: Fungicidal activity against Gaeumannomyces graminis / liquid culture (take-all of cereals); type: cell-based; conditions: liquid culture (PDB), inhibition of growth determined photometrically 4-5 days after application, read-out: disease control
Method: Fungicidal Activity Against Gaeumannomyces graminis/Liquid Culture (Take-all of Cereals) Mycelial fragments of the fungus from cryogenic storage were directly mixed into nutrient broth (PDB potato dextrose broth). After placing a (DMSO) solution of test compound into a microtiter plate (96-well format), the nutrient broth containing the fungal spores is added. The test plates were incubated at 24° C. and the inhibition of growth was determined photometrically 4-5 days after application.

[7] = test system: Monographella nivalis (Microdochium nivale); experiment: Fungicidal activity against Monographella nivalis (Microdochium nivale) / liquid culture (foot rot cereals); type: cell-based; conditions: liquid culture (PDB), inhibition of growth determined photometrically 4-5 days after application, read-out: disease control
Method: Fungicidal Activity Against Monographella nivalis (Microdochium nivale)/Liquid Culture (Foot Rot Cereals) Conidia of the fungus from cryogenic storage were directly mixed into nutrient broth (PDB potato dextrose broth). After placing a (DMSO) solution of test compound into a microtiter plate (96-well format), the nutrient broth containing the fungal spores was added. The test plates were incubated at 24° C. and the inhibition of growth was determined photometrically 4-5 days after application.

[8] = test system: Pyrenophora teres; experiment: Fungicidal activity against Pyrenophora teres / barley / leaf disc preventative (net blotch); type: in vivo; conditions: foliar, barley leaf segments cv. Hasso, inoculated 2 days after application, assessed 5-7 days after application, vs untreated, read-out: disease control
Method: Fungicidal Activity Against Pyrenophora teres/Barley/Leaf Disc Preventative (Net Blotch) Barley leaf segments cv. Hasso were placed on agar in a multiwell plate (24-well format) and sprayed with the formulated test compound diluted in water. The leaf […] inoculated with a spore suspension of the fungus 2 days after application. The inoculated leaf segments were incubated at 20° C. and 65% rh under a light regime of 12 h light/12 h darkness in a climate cabinet and the activity of a compound was assessed as disease control compared to untreated when an appropriate level of disease damage appears in untreated check leaf segments (5-7 days after application).

[9] = test system: Botryotinia fuckeliana (Botrytis cinerea); experiment: Fungicidal activity against Botryotinia fuckeliana (Botrytis cinerea) / liquid culture (gray mould); type: cell-based; conditions: liquid culture (Vogels broth), inhibition of growth determined photometrically 3-4 days after application, read-out: disease control
Method: Fungicidal Activity Against Botryotinia fuckeliana (Botrytis cinerea)/Liquid Culture (Gray Mould) Conidia of the fungus from cryogenic storage were directly mixed into nutrient broth (Vogels broth). After placing a (DMSO) solution of test compound into a microtiter plate (96-well format), the nutrient broth containing the fungal spores was added. The test plates were incubated at 24° C. and the inhibition of growth was determined photometrically 3-4 days after application.

Clc1nc(-c2cccc(Cc3ccccc3)n2)nc2sccc12 [Compound T3.1.33, 2-(6-benzyl-pyridin-2-yl)-4-chloro-thieno[2,3-d]pyrimidine]
≥ 80%: inhibition of growth at 200 ppm [1] | inhibition of growth at 200 ppm [2] | pest or weed control at 200 ppm [3] | pest or weed control at 200 ppm [4] | inhibition of growth at 200 ppm [5] | inhibition of growth at 200 ppm [6] | inhibition of growth at 200 ppm [7]

COc1nc(-c2cccc(Cc3ccccc3)n2)nc2sccc12 [Compound T3.1.35, 2-(6-benzyl-pyridin-2-yl)-4-methoxy-thieno[2,3-d]pyrimidine]
≥ 80%: inhibition of growth at 200 ppm [1] | inhibition of growth at 200 ppm [2] | pest or weed control at 200 ppm [3] | inhibition of growth at 200 ppm [5] | inhibition of growth at 200 ppm [6] | inhibition of growth at 200 ppm [7]

Cc1ccc(-c2ncc3cccnc3n2)nc1-c1ccccc1 [Compound T10.1.6, 2-(5-methyl-6-phenyl-pyridin-2-yl)-pyrido[2,3-d]pyrimidine]
≥ 80%: inhibition of growth at 200 ppm [1] | inhibition of growth at 200 ppm [2] | pest or weed control at 200 ppm [3] | pest or weed control at 200 ppm [4] | pest or weed control at 200 ppm [8] | inhibition of growth at 200 ppm [5] | inhibition of growth at 200 ppm [9] | inhibition of growth at 200 ppm [6] | inhibition of growth at 200 ppm [7]

CCOc1nc(-c2cccc(Cc3ccccc3)n2)nc2sccc12 [Compound T15.1]
≥ 80%: inhibition of growth at 200 ppm [1] | inhibition of growth at 200 ppm [2] | pest or weed control at 200 ppm [4] | inhibition of growth at 200 ppm [5] | inhibition of growth at 200 ppm [6] | inhibition of growth at 200 ppm [7]

c1ccc(Cc2cccc(-c3ncc4c5c(sc4n3)CCC5)n2)cc1 [Compound T15.2]
≥ 80%: inhibition of growth at 200 ppm [5] | inhibition of growth at 200 ppm [6]

Cc1sc2nc(-c3cccc(Cc4ccccc4)n3)ncc2c1C [Compound T15.4]
≥ 80%: pest or weed control at 200 ppm [8] | inhibition of growth at 200 ppm [5] | inhibition of growth at 200 ppm [9] | inhibition of growth at 200 ppm [6] | inhibition of growth at 200 ppm [7]

Cc1cc(F)ccc1-c1cccc(-c2nc(O)c3ccsc3n2)n1 [Compound T15.5]
≥ 80%: inhibition of growth at 200 ppm [9] | inhibition of growth at 200 ppm [6]

Cc1ccc(C)c(-c2cccc(-c3nc(O)c4ccsc4n3)n2)c1 [Compound T15.7]
≥ 80%: inhibition of growth at 200 ppm [6] | inhibition of growth at 200 ppm [7]

COc1nc(-c2cccc(-c3cc(C)ccc3C)n2)nc2sccc12 [Compound T15.8]
≥ 80%: inhibition of growth at 200 ppm [1] | pest or weed control at 200 ppm [8] | inhibition of growth at 200 ppm [5] | inhibition of growth at 200 ppm [6]

COc1nc(-c2cccc(C#CC3CC3)n2)nc2sccc12 [Compound T15.9]
≥ 80%: inhibition of growth at 200 ppm [5] | inhibition of growth at 200 ppm [6] | inhibition of growth at 200 ppm [7]

Cc1cccc(-c2nc(-c3ccccc3)c3ncccc3n2)n1 [Compound T15.10]
≥ 80%: inhibition of growth at 200 ppm [1] | inhibition of growth at 200 ppm [2] | pest or weed control at 200 ppm [3] | pest or weed control at 200 ppm [4] | pest or weed control at 200 ppm [8] | inhibition of growth at 200 ppm [5] | inhibition of growth at 200 ppm [9] | inhibition of growth at 200 ppm [6]

COc1cccc(-c2nc(-c3cccc(C)n3)nc3sccc23)c1 [Compound T15.11]
≥ 80%: inhibition of growth at 200 ppm [1] | inhibition of growth at 200 ppm [2] | pest or weed control at 200 ppm [3] | pest or weed control at 200 ppm [4] | pest or weed control at 200 ppm [8] | inhibition of growth at 200 ppm [5] | inhibition of growth at 200 ppm [9] | inhibition of growth at 200 ppm [6] | inhibition of growth at 200 ppm [7]

Cc1cccc(-c2nc(-c3cccc(C)n3)nc3sccc23)c1 [Compound T15.12]
≥ 80%: inhibition of growth at 200 ppm [1] | inhibition of growth at 200 ppm [2] | pest or weed control at 200 ppm [3] | pest or weed control at 200 ppm [4] | pest or weed control at 200 ppm [8] | inhibition of growth at 200 ppm [5] | inhibition of growth at 200 ppm [9] | inhibition of growth at 200 ppm [6] | inhibition of growth at 200 ppm [7]

Cc1cccc(-c2nc(-c3ccccc3C)c3ccsc3n2)n1 [Compound T15.13]
≥ 80%: inhibition of growth at 200 ppm [1] | inhibition of growth at 200 ppm [2] | pest or weed control at 200 ppm [3] | inhibition of growth at 200 ppm [5] | inhibition of growth at 200 ppm [9] | inhibition of growth at 200 ppm [6]

Cc1cccc(-c2nc(-c3ccccc3Cl)c3ccsc3n2)n1 [Compound T15.14]
≥ 80%: inhibition of growth at 200 ppm [1] | inhibition of growth at 200 ppm [2] | pest or weed control at 200 ppm [3] | pest or weed control at 200 ppm [8] | inhibition of growth at 200 ppm [5] | inhibition of growth at 200 ppm [9] | inhibition of growth at 200 ppm [6]

Cc1cccc(-c2nc(-c3ccc(Cl)cc3)c3ccsc3n2)n1 [Compound T15.15]
≥ 80%: inhibition of growth at 200 ppm [1] | inhibition of growth at 200 ppm [2] | pest or weed control at 200 ppm [3] | pest or weed control at 200 ppm [4] | pest or weed control at 200 ppm [8] | inhibition of growth at 200 ppm [5] | inhibition of growth at 200 ppm [9] | inhibition of growth at 200 ppm [6] | inhibition of growth at 200 ppm [7]
